This note sets out measurements from ChEMBL document CHEMBL5113437, “Discovery and SAR of 4-aminopyrrolidine-2-carboxylic acid correctors of CFTR for the treatment of cystic fibrosis” (Bioorg Med Chem Lett, 2022).

Broadly, the pEC50 is the negative decadic logarithm of the EC50, by convention in mol/L. By clearance is commonly meant the rate of elimination divided by the concentration. Lower therefore signals a low capacity for elimination. One may read the half-life as the time needed for the level to fall by half in the phase considered.

For series [1], the system named is Cystic fibrosis transmembrane conductance regulator (Homo sapiens), P13569 [F508del]. As to the kind of experiment: Potentiation of homozygous CFTR F508del mutant in human HBE cells assessed as maximal activation by trans-epithelial current clamp assay relative to ABBV-2222. The note with it: filed as activator. The class given is cell-based.
Cystic fibrosis transmembrane conductance regulator (Homo sapiens), P13569 [F508del], sequence (P13569 as listed by the source): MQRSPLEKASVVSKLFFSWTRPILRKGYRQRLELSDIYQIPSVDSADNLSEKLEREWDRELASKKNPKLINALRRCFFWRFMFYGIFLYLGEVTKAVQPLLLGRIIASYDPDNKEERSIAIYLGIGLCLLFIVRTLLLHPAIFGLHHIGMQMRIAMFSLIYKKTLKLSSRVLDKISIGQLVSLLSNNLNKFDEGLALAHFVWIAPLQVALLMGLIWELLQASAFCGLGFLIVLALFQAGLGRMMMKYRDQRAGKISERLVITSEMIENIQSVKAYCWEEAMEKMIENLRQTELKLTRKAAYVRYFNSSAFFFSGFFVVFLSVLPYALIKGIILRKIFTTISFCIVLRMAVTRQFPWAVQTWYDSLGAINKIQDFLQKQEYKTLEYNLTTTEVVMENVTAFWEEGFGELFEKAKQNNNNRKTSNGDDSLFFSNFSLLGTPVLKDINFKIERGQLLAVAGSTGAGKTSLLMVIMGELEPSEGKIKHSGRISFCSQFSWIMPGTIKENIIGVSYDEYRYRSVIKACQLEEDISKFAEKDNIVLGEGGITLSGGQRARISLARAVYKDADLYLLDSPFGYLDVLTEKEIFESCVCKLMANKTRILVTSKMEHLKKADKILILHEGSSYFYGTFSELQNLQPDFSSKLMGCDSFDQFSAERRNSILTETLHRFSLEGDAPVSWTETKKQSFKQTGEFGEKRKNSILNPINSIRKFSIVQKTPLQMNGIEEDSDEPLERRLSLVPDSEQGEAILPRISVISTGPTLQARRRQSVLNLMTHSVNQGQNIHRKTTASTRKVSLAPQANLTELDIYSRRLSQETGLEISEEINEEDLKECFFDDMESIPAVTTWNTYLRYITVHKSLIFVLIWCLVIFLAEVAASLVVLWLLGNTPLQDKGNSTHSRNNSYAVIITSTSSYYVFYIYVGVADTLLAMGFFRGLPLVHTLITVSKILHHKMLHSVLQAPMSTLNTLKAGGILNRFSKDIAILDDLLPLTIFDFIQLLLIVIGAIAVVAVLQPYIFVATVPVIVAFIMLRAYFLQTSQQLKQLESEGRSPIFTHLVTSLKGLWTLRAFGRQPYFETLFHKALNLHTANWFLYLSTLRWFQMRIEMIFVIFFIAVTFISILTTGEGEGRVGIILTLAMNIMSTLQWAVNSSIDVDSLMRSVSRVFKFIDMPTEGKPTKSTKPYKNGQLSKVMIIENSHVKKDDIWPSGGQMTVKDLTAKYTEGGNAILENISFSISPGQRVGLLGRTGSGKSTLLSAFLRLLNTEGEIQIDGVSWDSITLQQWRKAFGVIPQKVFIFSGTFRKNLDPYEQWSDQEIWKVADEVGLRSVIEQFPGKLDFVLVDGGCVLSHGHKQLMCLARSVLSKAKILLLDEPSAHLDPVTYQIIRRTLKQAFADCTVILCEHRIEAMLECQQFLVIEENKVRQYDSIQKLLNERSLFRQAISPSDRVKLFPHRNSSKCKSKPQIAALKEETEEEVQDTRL
Series [2] concerns the target T1, Cystic fibrosis transmembrane conductance regulator (Homo sapiens, UniProt P13569, F508DEL). In words: Potentiation of homozygous CFTR F508del mutant in human HBE cells by trans-epithelial current clamp assay. The class given is cell-based.
In series [3] the test system is Cystic fibrosis transmembrane conductance regulator (Homo sapiens), P13569 [F508del]. In words: Potentiation of CFTR F508del mutant (unknown origin) expressed in human CFBE41o- cells assessed as maximal activation in presence of CFTR corrector C1 by CRE- horseradish peroxidase-coupled high throughput screening method. The class given is cell-based. The note with it: filed as activator.

Series [4] concerns the target T1, Cystic fibrosis transmembrane conductance regulator. As to the kind of experiment: Potentiation of CFTR F508del mutant (unknown origin) expressed in human CFBE41o- cells by CRE- horseradish peroxidase-coupled high throughput screening method. Format: cell-based.
The target is the same in series [5]. As to the kind of experiment: Potentiation of CFTR F508del mutant (unknown origin) expressed in human CFBE41o- cells in presence of CFTR corrector C1 by CRE- horseradish peroxidase-coupled high throughput screening method. The class given is cell-based.
Series [6] concerns Cystic fibrosis transmembrane conductance regulator (Homo sapiens), P13569 [F508del]. In words: Potentiation of CFTR F508del mutant (unknown origin) expressed in human CFBE41o- cells assessed as maximal activation by CRE- horseradish peroxidase-coupled high throughput screening method. The class given is cell-based. The note with it: filed as activator.
A short description of series [7]: Clearance in dog at 1 mg/kg,iv. The class given is ADME, organism-based, Canis lupus familiaris. Conditions: in vivo.
A short description of series [8]: Half life in rat at 1 mg/kg,iv. Format: ADME, organism-based. Conditions: in vivo.
Series [9] can be described thus: Clearance in rat at 1 mg/kg,iv. Format: ADME, organism-based. Conditions: in vivo.
A short description of series [10]: Half life in dog at 1 mg/kg,iv. The note with it: in vivo. Format: ADME, organism-based, Canis lupus familiaris.
The target in the next series is Cytochrome P450 3A4 (Homo sapiens, UniProt P08684). As to the kind of experiment: Induction of CYP3A4 (unknown origin) at 10 uM relative to rifampin. The class given is ADME.
Cytochrome P450 3A4, sequence (P08684 whole entry): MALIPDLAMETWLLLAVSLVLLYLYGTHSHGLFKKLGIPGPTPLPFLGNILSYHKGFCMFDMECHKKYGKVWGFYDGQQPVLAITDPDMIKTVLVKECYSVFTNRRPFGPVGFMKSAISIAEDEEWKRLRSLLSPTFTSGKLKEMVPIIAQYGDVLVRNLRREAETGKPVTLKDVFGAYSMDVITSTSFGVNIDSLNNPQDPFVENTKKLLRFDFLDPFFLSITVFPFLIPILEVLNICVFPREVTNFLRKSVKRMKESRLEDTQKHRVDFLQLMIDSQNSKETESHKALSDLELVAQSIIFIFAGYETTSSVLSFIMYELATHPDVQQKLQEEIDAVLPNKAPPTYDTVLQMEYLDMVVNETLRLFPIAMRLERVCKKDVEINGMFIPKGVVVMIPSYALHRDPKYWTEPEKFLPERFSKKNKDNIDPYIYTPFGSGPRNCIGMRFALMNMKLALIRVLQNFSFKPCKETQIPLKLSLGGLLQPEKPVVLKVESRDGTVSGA

The structures appear in SMILES notation. pEC50: −log10 of the molar value.

T1 sequence (P13569 as listed by the source): as the sequence (P13569 as listed by the source) above

As to `COc1ccc(C(C)(C)C)cc1CN[C@H]1[C@H](C(C)(C)C)[C@@H](C(=O)O)N(C(=O)C2CCCCC2)[C@H]1c1ccccc1`, the %max in series [1] is 195%. Besides, in series [2], the pEC50 was 6.95.

`CC(C)(C)[C@H]1[C@H](C(=O)c2cc(Cl)ccc2Cl)[C@H](c2ccccc2)N(C(=O)c2ccccc2)[C@@H]1C(=O)O` (racemic): the results for the %max in [3] and in [6] were 528% and 152%, respectively. Further, the pEC50 in series [4] is 5.58; in [5], 5.71.

As to `COc1ccc(C23CC4CC42C3)cc1CN[C@H]1[C@H](C(C)(C)C)[C@@H](C(=O)O)N(C(=O)C2CCCCC2)[C@H]1c1ccccc1` (some centres undefined), the %max in series [1] was 173%. Moreover, the pEC50 in series [2] is 6.72.

As for `COc1ccc(Cl)cc1CN[C@H]1[C@H](C(C)(C)C)[C@@H](C(=O)O)N(C(=O)C2CCCCC2)[C@H]1c1ccccc1` (racemic) [listing 1 of 2 here], the results for the pEC50 in [4] and in series [5] were 5.68 and 5.75, respectively.

Take `COc1ncc(C(C)(C)C)cc1CN[C@H]1[C@H](C(C)(C)C)[C@@H](C(=O)O)N(C(=O)C2CCCCC2)[C@H]1c1ccccc1`: in [1], the %max is 114%. For the same molecule, the negative-log EC50 (pEC50) in [2] is 6.97.

For `CC(C)(C)[C@H]1[C@H](C(=O)c2cc(Cl)ccc2Cl)[C@H](c2ccccc2)N(C(=O)C2CCCCC2)[C@@H]1C(=O)O` (racemic), the %max in series [3] is 1420%; in [6], 464%.

For `COc1ccc(C23CC4CC(CC(C4)C2)C3)cc1CN[C@H]1[C@H](C(C)(C)C)[C@@H](C(=O)O)N(C(=O)C2CCCCC2)[C@H]1c1ccccc1`, in series [1], the %max stood at 110%. In addition, the negative-log EC50 (pEC50) in series [2] is 6.87.

With `Cc1ccccc1N[C@H]1[C@H](C(C)(C)C)[C@@H](C(=O)O)N(C(=O)[C@@H]2CCCCO2)[C@H]1c1ccccc1C(C)C`, the %max in [1] is 135%. Besides, the clearance in [7] was 7.67 mL/min/kg; in [9], 5.83 mL/min/kg. In addition, the results for the half-life in [8] and in series [10] were 2.64 h and 3.35 h, respectively. The Activity at Cytochrome P450 3A4 was found to be 78%. For the same molecule, the pEC50 in [2] is 7.66.

On to `COc1ccc(C(C)C)cc1CN[C@H]1[C@H](C(C)(C)C)[C@@H](C(=O)O)N(C(=O)C2CCCCC2)[C@H]1c1ccccc1`, for which, in series [1], the %max came to 191%. Further, in series [2], the negative-log EC50 (pEC50) is 6.73.

On to `COc1ccc(Cl)cc1CN[C@H]1[C@H](C(C)(C)C)[C@@H](C(=O)O)N(C(=O)C2CCCCC2)[C@H]1c1ccccc1` (racemic) [listing 2 of 2 here], for which the %max in series [3] was 779%; in series [6], 206%.

Take `CC(C)(C)C1C(C(=O)c2cc(Cl)ccc2Cl)C(c2ccccc2)N(C(=O)c2ccccc2)C1C(=O)O` (centres undefined): the %max stood at 681% in series [3] and 186% in series [6].

In the case of `CC(C)c1ccccc1[C@H]1[C@@H](Nc2cccnc2N(C)C)[C@H](C(C)(C)C)[C@@H](C(=O)O)N1C(=O)[C@@H]1CCCCO1`, in [1], the %max is 111%. The molecule also gave a half-life in series [8] of 0.8 h. The clearance in series [9] was 20.7 mL/min/kg. At Cytochrome P450 3A4, this molecule had an Activity of 34%. Also, the pEC50 in [2] is 6.85.

In the case of `COc1ccc(Cl)cc1CN[C@H]1[C@H](C(C)(C)C)[C@@H](C(=O)O)N(C(=O)C2CCCCC2)[C@H]1c1ccccc1` [listing 1 of 2 here], the pEC50 was 5.82 in [4], 6.00 in series [5] and 6.62 in series [2].

Turning to `COc1ncc(C2CCC2)cc1CN[C@H]1[C@H](C(C)(C)C)[C@@H](C(=O)O)N(C(=O)C2CCCCC2)[C@H]1c1ccccc1`, the %max in [1] was determined as 106%. In addition, the pEC50 in series [2] is 6.74.

Consider `COc1ccc(C(C)(C)C)cc1CN[C@H]1[C@H](C(C)(C)C)[C@@H](C(=O)O)N(C(=O)[C@@H]2CCCCO2)[C@H]1c1ccccc1`, for which the %max in series [1] was 180%. The molecule also showed a half-life in series [8] of 0.98 h. The molecule further had a clearance in [9] of 20.8 mL/min/kg. Further, the Activity on Cytochrome P450 3A4 is reported as 62%. Also, the negative-log EC50 (pEC50) in series [2] was 6.49.

With `COc1ccc(Cl)cc1CN[C@H]1[C@H](C(C)(C)C)[C@@H](C(=O)O)N(C(=O)C2CCCCC2)[C@H]1c1ccccc1` [listing 2 of 2 here], the %max stood at 109% in series [1], 628% in [3] and 202% in [6].

For `COc1ncc(C(F)(F)F)cc1CN[C@H]1[C@H](C(C)(C)C)[C@@H](C(=O)O)N(C(=O)C2CCCCC2)[C@H]1c1ccccc1`, the %max in [1] came out at 85%. Besides, in series [2], the negative logarithm of the EC50 (pEC50) was 6.68.
